From patent US20250176602A1, “Composition for Proliferation of Bacteroides uniformis in the Intestinal Tract” (Asahi Group Holdings, Ltd., priority 2019, published 2025)

Assays:
[1] = test system: Bacteroides uniformis; experiment: Proliferation of Bacteroides uniformis in the intestinal tract, quantification PCR of feces (Example 1); type: in vivo, human; conditions: about 200 mg α-cyclodextrin per day, oral tablets; 8w vs 0w; p<0.05
Experimental: As test subjects, 21 healthy males at the ages of 20 to 49 who have exercise habits of conducting exercise with an intensity of 5 METs or more for 30 minutes or more once or twice a week and who can continue the exercise habits during the test period as well were selected. Among the 21 test subjects, 10 test subjects were selected as an α-cyclodextrin (αCD) intake group, and the remaining 11 test subjects were selected as a placebo group. The test subjects themselves were not informed who belonged to which group. Test Supplements (tablets) having compositions described in Table 1 below were used. One tablet of the test supplements was of about 250 mg. […] The intake period for the test supplements was set to 9 weeks, and change in gut flora was evaluated, a questionnaire on fatigue feeling was conducted, and change in travel time was evaluated, before the start of the intake, after 4-week intake, and after 8-week intake. […] DNA was extracted from the collected feces by a conventional method, and the absolute number of Bacteroides uniformis in the intestinal tract was evaluated by conducting quantification PCR (probe method) with a conventional method using a forward primer, a reverse primer, and a probe targeting a sequence specific to the 16Sr DNA sequence region of Bacteroides uniformis with reference to the description of Anaerobe (2011), 17, 64-68, Jia Tong et al.

[2] = Suppression of increase in heart rate during exercise, Aerobike exercise loading test (Example 4); type: in vivo, human; conditions: about 1000 mg/day
Experimental: (§1) As the test subjects, 86 healthy males at the ages of 20 to 49 who have exercise habits of conducting exercise with an intensity of 5 METs or more for 30 minutes or more once or twice a week and who can continue the exercise habits during the test period as well were selected.
(§2) Among the 86 test subjects, 43 test subjects were selected as an α-cyclodextrin (αCD) intake group, and the remaining 43 test subjects were selected as a placebo group. The test subjects themselves were not informed who belonged to which group.
(§3) Test Supplements (tablets) having compositions described in Table 4 below were used. One tablet of the test supplements was of about 600 mg.
(§4) Each test subject of the αCD intake group and the placebo group was asked to take in 4 tablets of the above test supplements once a day at any timing. That is, each test subject of the α-cyclodextrin intake group was asked to take in about 1000 mg of α-cyclodextrin per day.
(§5) The intake period for the test supplements was set to 8 weeks, and the heart rate during exercise was measured, before the start of the intake, after 4-week intake, and after 8-week intake to evaluate change in heart rate. In addition, a questionnaire on fatigue feeling was conducted before the start of the intake of the test supplements and after 8-week intake, and change in travel time was evaluated. […]

[3] = Fatigue feeling mitigation test, VAS general fatigue feeling (Example 5); type: in vivo, human; conditions: after 8-week intake, about 1000 mg/day; p<0.05
Experimental: as §1, §2, §3, §4, §5

[4] = test system: Bacteroides, Bifidobacterium, and Lactobacillus; conditions: obese mice given high-fat diets, fed α-cyclodextrin; cited from earlier work

## OC[C@H]1O[C@@H]2O[C@H]3[C@H](O)[C@@H](O)[C@@H](O[C@H]4[C@H](O)[C@@H](O)[C@@H](O[C@H]5[C@H](O)[C@@H](O)[C@@H](O[C@H]6[C@H](O)[C@@H](O)[C@@H](O[C@H]7[C@H](O)[C@@H](O)[C@@H](O[C@H]1[C@H](O)[C@H]2O)O[C@@H]7CO)O[C@@H]6CO)O[C@@H]5CO)O[C@@H]4CO)O[C@@H]3CO [α-cyclodextrin]
[1]
  bacterial cell number of Bacteroides uniformis in the intestinal tract, after 8-week intake as compared with before intake: about 2.5 times
[2]; after 4-week intake, tendency
  average heart rate for 10 minutes immediately before the end of exercise (Δ value vs before intake), compared with placebo group: lower
[2]; after 8-week intake, p<0.05
  average heart rate for 10 minutes immediately before the end of exercise (Δ value vs before intake), compared with placebo group: significantly lower
[3]
  general fatigue feeling (VAS) immediately after exercise, change vs before intake, compared with placebo group: significantly decreased
[4]
  accumulation of fat: reductions in accumulation of fat
  total bacterial cell numbers of Bacteroides, Bifidobacterium, and Lactobacillus in the intestinal tracts: suppress decreases
